Values belong to the compound of their own block, whether it stands above or below them.
What was measured:
Assay type in all cases: cell-based
[1] = biological target: T1, 5-HT3AR (serotonin (3) receptor subunit A, homopentamer) (Mus musculus, UniProt P23979); experiment: cryo-EM structure ([…] Å); also TEVC inhibition of serotonin currents in oocytes
T1 construct: gene Htr3a; full-length, C-terminal 1D4-tag and four N-terminal strep-tags; modelled Thr7–Leu335 and Leu397–Ser462
T1 sequence (P23979 34-483 isoform P23979-2): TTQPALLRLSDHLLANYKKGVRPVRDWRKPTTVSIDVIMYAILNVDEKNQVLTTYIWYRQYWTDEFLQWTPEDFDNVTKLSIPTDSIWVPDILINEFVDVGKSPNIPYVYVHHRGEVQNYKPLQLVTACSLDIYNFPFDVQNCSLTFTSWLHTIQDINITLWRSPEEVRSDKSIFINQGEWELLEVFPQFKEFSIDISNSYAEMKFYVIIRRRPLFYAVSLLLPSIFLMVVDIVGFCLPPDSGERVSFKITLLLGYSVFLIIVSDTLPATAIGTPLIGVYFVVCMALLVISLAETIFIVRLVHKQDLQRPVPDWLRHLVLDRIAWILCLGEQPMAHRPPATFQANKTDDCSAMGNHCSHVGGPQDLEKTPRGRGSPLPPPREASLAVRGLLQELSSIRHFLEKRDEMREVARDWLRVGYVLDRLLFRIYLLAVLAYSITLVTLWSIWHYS

[2] = biological target: T1, 5-HT3AR (serotonin (3) receptor subunit A, homopentamer); experiment: as above; remark: listed apart in the source
[3] = biological target: T1, 5-HT3AR (serotonin (3) receptor subunit A, homopentamer); experiment: as above; remark: listed apart in the source
[4] = biological target: T2, 5-HT3AR (serotonin (3) receptor subunit A, homopentamer) (Mus musculus, UniProt P23979); experiment: two-electrode voltage clamp in oocytes, inhibition of serotonin-induced current on co-application
T2 construct: gene Htr3a; 5-HT3AR expressed in Xenopus laevis oocytes
T2 sequence (P23979 24-489): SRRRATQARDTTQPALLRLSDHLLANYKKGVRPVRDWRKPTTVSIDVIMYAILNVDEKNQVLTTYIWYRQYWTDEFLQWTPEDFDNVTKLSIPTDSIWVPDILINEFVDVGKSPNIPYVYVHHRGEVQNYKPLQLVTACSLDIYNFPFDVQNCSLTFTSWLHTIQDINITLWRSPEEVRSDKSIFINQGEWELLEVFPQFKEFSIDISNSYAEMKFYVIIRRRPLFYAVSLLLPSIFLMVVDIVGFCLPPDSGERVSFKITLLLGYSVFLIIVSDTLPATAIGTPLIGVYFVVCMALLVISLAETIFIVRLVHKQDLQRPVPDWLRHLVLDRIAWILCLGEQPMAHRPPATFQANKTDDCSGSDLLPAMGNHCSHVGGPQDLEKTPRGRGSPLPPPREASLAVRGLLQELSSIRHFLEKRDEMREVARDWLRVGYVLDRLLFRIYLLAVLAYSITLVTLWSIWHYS

- potency for TEVC inhibition of serotonin currents [1]: ~ 0.1 nM
SMILES: Cc1[nH]cnc1CN1CCc2c(c3ccccc3n2C)C1=O [alosetron]

SMILES: O=C1c2cccc3c2[C@H](CCC3)CN1[C@@H]1CN2CCC1CC2 [palonosetron]
- cryo-EM structure (3.32 Å); also TEVC inhibition of serotonin currents in oocyte [2]: ~ 1 nM

- inhibition of serotonin currents in oocytes [3]: ~ 0.1 nM
SMILES: Cc1nccn1CC1CCc2c(c3ccccc3n2C)C1=O (stereo not shown) [ondansetron]

SMILES: CN1C2CCCC1CC(NC(=O)c1nn(C)c3ccccc13)C2 (stereo not shown) [granisetron]
- two-electrode voltage clamp in oocytes, inhibition of serotonin-induced current [4]: ~ 1 nM
